Data from article PMC7524759, “Solution structure of the Hop TPR2A domain and investigation of target druggability by NMR, biochemical and in silico approaches” (Scientific Reports, 2020).
“Also recorded” adds a separate entry of the source. Like-named read-outs stand apart in the source and are kept apart here.

Tests used:
[1] = biological target: T1, Hop TPR2A-Hsp90 MEEVD interaction (Homo sapiens, UniProt P31948); experiment: LANCE (TR-FRET) proximity assay of Hop TPR2A binding to biotin-Hsp90 MEEVD peptide; conditions: for LE (ligand efficiency): approximated from LANCE IC50 values using number of heavy atoms
T1 construct: The TPR2A domain of human Hop, residues 218-350, was cloned from full-length Hop cDNA; made in house; host or cells: Escherichia coli BL21 (DE3) pLysS
Experimental: Compounds containing succinic acid substructures were therefore selected to mimic the natural carboxylate clamp interaction between the Hsp90 C-terminus and TPR cochaperones. […] In this assay, compounds that block the protein-peptide interaction cause a loss in fluorescent signal.
The labelling reagents used were Surelight APC-SA and LANCE Eu-1024 Anti-6xHis (both PerkinElmer). Assays were performed in black low volume 384-well plates (Corning) with a total volume of 20 μl per well in assay buffer of 20 mM HEPES pH 7.4, 100 mM NaCl, 1 mM DTT, 0.1% Tween-20. […] Compound stocks to be screened were individually corrected to approximately neutral pH due to their highly acidic nature and dispensed using a Labcyte Echo acoustic dispenser.
Raw fluorescence or luminescence values from compound screening were converted to % inhibition of the total assay signal. IC50 values were determined by plotting % inhibition against the log10 of inhibitor concentration and fitted using a variable slope, four-parameter concentration–response curve using a robust fit in GraphPad Prism. […] To generate IC50 values, assays were repeated independently 3 times with duplicate or triplicate wells for each run. […] Ligand efficiency (LE) was approximated from LANCE biochemical IC50 values using the number of heavy atoms (HA)[67].

Hop TPR2A = biological target: T2, Hop TPR2A (Homo sapiens, UniProt P31948); experiment: NMR 1H-15N HSQC chemical shift perturbation (CSP) titration; assay type: binding; conditions: for Kd: Mean ± S.D. for 10 fitted residues
T2 construct: The TPR2A domain of human Hop, residues 218-350, was cloned from full-length Hop cDNA; 6xHis (N, cleaved yes); made in house; host or cells: Escherichia coli BL21 (DE3) pLysS
Experimental: Chemical shift perturbation (CSP) experiments were carried out on protein and compound mixtures to characterise protein–ligand interactions. ^1H-^15N HSQC spectra were collected on 200 μl samples in 20 mM Na2HPO4 pH 6.5, 50 mM NaCl, 1 mM DTT with 10% D2O in 3 mm NMR tubes (GPE Scientific). […] Each sample was prepared with 100 μM protein while compound or peptide concentration varied according to the experiment. Where possible, compound or peptide stocks were made up in NMR buffer to minimise buffer effects on the spectra. Compounds were otherwise diluted from DMSO stocks maintaining a maximum final DMSO concentration of 3% v/v. HSQC spectra of the protein with DMSO in the buffer were collected as controls. ^1H–^15N HSQC spectra were collected using standard pulse sequences.
Changes in chemical shifts (∆δ) were calculated for each backbone assigned N–H peak using a weighted CSP[70]. In order to visualise the locations of the largest shifts the ∆δ values were edited into a Hop TPR2A PDB file (in place of B-factors) and represented as surface heat maps in PyMol. Kd values from CSP titrations were calculated from HSQC spectra collected at a series of increasing compound concentrations[58], plots are representative of one titration for several different residues.
Chemical shift perturbation (CSP) experiments and Kd determination
Changes in chemical shifts were determined by tracking ligand shifted HSQC peaks in
NMRView and exporting the resultant peak lists to Excel. In Excel, using appropriate lists of
control peaks the change in chemical shift (Dd) was calculated for each backbone assigned
N-H peak using Equation S1.
(Equation S1) Δδ = %Δ𝛿!! + (0.2Δ𝛿#) -
Where Δ𝛿!! is the change in proton chemical shift, and Δ𝛿# is the change in nitrogen chemical
shift. Using a scaling factor (0.2) normalises the difference in magnitude of chemical shifts at
these two nuclei, various scaling factors are used in the literature and a value of 0.2 has been
To estimate Kd values from CSP titrations HSQC spectra were collected at a series of
increasing compound concentrations, peak lists for each concentration were generated and
exported to Excel. Then using GraphPad Prism the Dd values for each concentration were
fitted by non-linear regression to Equation S2, taken from Fielding 2007 equation 16 (see also
Williamson 2013 equation 6 for the derivation).
(Equation S2) Δ𝛿 = Δ𝛿&’( "[0]
In which Δ𝛿 is the adjusted chemical shift change, Δ𝛿&’( is the chemical shift change at
saturation, [𝑃]7 the total protein concentration, 𝐾8 the equilibrium dissociation constant, and
[𝐿]7the total ligand concentration. Here the Δ𝛿&’( was taken to be the observed Δ𝛿 at the
highest [𝐿]7. Except in cases where this was clearly far from saturation, when this variable
was not constrained during the curve fit.
Determining dissociation constants using CSP titrations requires that the experimental [P] is
high enough that the signal to noise of the experiment is sufficient while falling into a suitable
range for accurate curve fitting using equation S2.

[2] = system: FLAG-tagged Hsp90 complexes (TPR cochaperone association) from HCT116 cells; experiment: FLAG co-immunoprecipitation Western blot of Hsp90 complexes; assay type: biochemical, human
Hsp90 (Homo sapiens) = experiment: ITC; conditions: cited from earlier work
[3] = n = 3 independent experiments, duplicate wells, Mean ± S.D.

T1 sequence (P31948 218-350): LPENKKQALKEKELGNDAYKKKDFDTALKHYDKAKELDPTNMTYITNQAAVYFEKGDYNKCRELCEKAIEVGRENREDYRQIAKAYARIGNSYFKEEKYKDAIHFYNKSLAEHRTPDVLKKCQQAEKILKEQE
T2 sequence (P31948 218-350): as above
Chain of Hop TPR2A (from UniProt P31948) (P31948 223-352): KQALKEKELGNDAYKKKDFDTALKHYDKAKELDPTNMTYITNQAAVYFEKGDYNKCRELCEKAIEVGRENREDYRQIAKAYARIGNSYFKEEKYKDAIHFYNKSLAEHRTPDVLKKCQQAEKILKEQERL

Row | Compound | LE (ligand efficiency) [1] | IC50 [1, 3] [µM] | Kd (Hop TPR2A) [µM] | further results
1 | O=C(O)CCC(=O)O [Compound 1, succinic acid] | 0.42 | 3960 | – | IC50 [1]: ~4000 µM
2 | O=C(O)/C=C\C(=O)O [Compound 2] | 0.47 | 2170 | – | –
3 | COc1ccc(C2c3[nH]c4ccccc4c3CC3C(=O)N(c4ccccc4C(=O)NC(CC(=O)O)C(=O)O)C(=O)N32)cc1 (stereo not shown) [Compound 7] | 0.13 | 74 ± 3.2 | – | –
4 | Hop TPR2A (from UniProt P31948) | – | – | – | Kd (Hsp90 (Homo sapiens)): 11 µM

The next lines start with results.

Row | LE (ligand efficiency) [1] | IC50 [1, 3] [µM] | Kd (Hop TPR2A) [µM] | Compound | further results
5 | 0.13 | 311 ± 37 | – | COc1cccc(C2c3[nH]c4ccccc4c3CC3C(=O)N(c4ccccc4C(=O)NCC(=O)O)C(=O)N32)c1 (stereo not shown) [Compound 8] | –
6 | 0.14 | 452 ± 14 | 1410 | O=C(O)c1ccccc1N1C(=O)C2Cc3c([nH]c4ccccc34)C(c3ccccc3)N2C1=O (stereo not shown) [Compound 9] | –
7 | 0.15 | 234 ± 75 | 729 ± 164 | Cc1ccc(C2c3[nH]c4ccccc4c3CC3C(=O)N(c4ccccc4C(=O)O)C(=O)N32)cc1 (stereo not shown) [Compound 10] | –
8 | 0.17 | 80 ± 5.8 | 177 ± 13 | Cc1cccc(C2c3[nH]c4ccccc4c3CC3C(=O)N(c4ccccc4C(=O)O)C(=O)N32)c1 (stereo not shown) [Compound 11] | CSP ∆δ (Hop TPR2A; residue Arg305): 0.38 ppm; CSP ∆δ (Hop TPR2A; residue Asn264): 0.36 ppm; CSP ∆δ (Hop TPR2A; residue Asn308): 0.12 ppm; CSP ∆δ (Hop TPR2A; residue Lys301): 0.1 ppm; TPR cochaperone association with Hsp90 complexes ([2]; added to HCT116 cell lysate, N = 1, qualitative): not; TPR cochaperone association with Hsp90 complexes ([2]; added to purified Hsp90 complexes, N = 1, preliminary, qualitative): reduce TPR cochaperone association; also recorded: may disrupt binding of Hop and another TPR cochaperone, PP5
9 | 0.17 | 94 ± 6.4 | 352 ± 39 | Cc1ccccc1C1c2[nH]c3ccccc3c2CC2C(=O)N(c3ccccc3C(=O)O)C(=O)N21 (stereo not shown) [Compound 12] | –
10 | 0.12 | 1180 | – | COc1cccc(C2c3[nH]c4ccccc4c3CC3C(=O)N(c4ccc(C(=O)O)cc4)C(=O)N32)c1 (stereo not shown) [Compound 13] | drop in LANCE activity compared to 11 ([1]; carboxylic acid at R2 moved from ortho to para): more than tenfold drop in activity
